Target: T1, AR-TIF2 PPI (Homo sapiens, UniProt P10275)
T1 construct: AR-LBD residues (662-919) were incorporated into one biosensor; expressed in transfected cells; host or cells: U-2 OS osteosarcoma cells, coinfected with recombinant adenoviruses
T1 sequence (P10275 662-919): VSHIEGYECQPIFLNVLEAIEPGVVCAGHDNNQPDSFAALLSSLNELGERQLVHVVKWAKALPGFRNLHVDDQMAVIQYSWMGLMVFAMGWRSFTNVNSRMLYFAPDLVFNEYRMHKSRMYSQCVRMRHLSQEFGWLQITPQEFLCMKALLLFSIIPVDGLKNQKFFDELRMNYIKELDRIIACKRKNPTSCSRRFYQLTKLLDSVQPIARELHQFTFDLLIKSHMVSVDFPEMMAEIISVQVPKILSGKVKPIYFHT
Test: AR-TIF2 PPIB assay, both formats stated jointly
Type: cell-based
Settings: for Fold reduction in relative potency in both AR-TIF2 PPIB assay formats: analog versus its parent hit; for IC50: both assay formats, read-out: AR-TIF2 PPI inhibitor/disruptor IC50s
Description: AR-TIF2 Protein-Protein Interaction Biosensor Assay: The AR-TIF2 PPIB HCS assay was performed in U-2 OS osteosarcoma cells as described previously (Fancher et al., Assay Drug Dev Technol. 2016, 14:453-477; Fancher et al., Assay Drug Dev Technol. 2018, 16:297-319; Hua et al., Assay Drug Dev Technol. 2014, 12:395-418; Hua et al., Methods Mol Biol. 2018, 1683:211-227). Briefly, U-2 OS cells were coinfected with recombinant adenovirus biosensor expression constructs and seeded at 2,500 cells per well in 384-well collagen-coated microplates (Greiner Bio-One #781956) and plates were incubated overnight at 37° C. in 5% CO2 and 95% humidity. […] After the appropriate time, assay plates were fixed by transfer of 50 μL of pre-warmed (37° C.) 7.4% formaldehyde and 2 μg/mL Hoechst 33342 in PBS and incubation at room temperature for 30 minutes. Liquid was aspirated, plates were washed twice with 85 μL PBS, leaving the final wash in the plate. Plates were sealed with adhesive aluminum plate seals, and fluorescent images of three fields of view were acquired in the DAPI (Hoechst stained nuclei), FITC (TIF2-GFP) and Texas Red (AR-RFP) channels on an ImageXpress® Micro (IXM) automated HCS platform (Molecular Devices LLC, Sunnyvale, CA) using a 10× Plan Fluor 0.3 NA objective. Images were analyzed using the Translocation Enhanced (TE) image analysis module of the MetaXpress® software (Molecular Devices, LLC, San Jose, CA) as described previously (Fancher et al., Assay Drug Dev Technol. 2016, 14:453-477; Fancher et al., Assay Drug Dev Technol. 2018, 16:297-319; Hua et al., Assay Drug Dev Technol. 2014, 12:395-418; Hua et al., Methods Mol Biol. 2018, 1683:211-227).
A positional AR-TFI2 protein-protein interaction biosensor (PPIB) assay was used to identify small molecules that inhibited DHT-induced formation of AR-TIF2 PPIs and/or disrupted pre-existing AR-TIF2 PPIs (Fancher et al., Assay Drug Dev Technol 2016, 14(8):453-477; Fancher et al., Assay Drug Dev Technol 2018, 16(6):297-319; Hua et al., Assay Drug Dev Technol 2014, 12:395-418; Hua et al., Methods Mol biol 2018, 1683:211-227). AR-LBD residues (662-919) were incorporated into one biosensor and TIF2 residues (725-840) containing the 3rd NR box LXXLL motif into the second interacting biosensor partner (Id.) The AR-TIF2 PPIB recapitulates the orthosteric ligand (OSL)-induced translocation of AR from the cytoplasm into the nucleus where PPIs with TIF2 result in colocalization of both biosensors in the nucleolus. Using three libraries, a total of 143,535 compounds were screened—a 10,000-compound ChemDiv PPI focused diversity library, a 50,000-compound ChemBridge diversity library, and a 83,535-compound library provided by the NCI's Chemical Biology Consortium. The 10K and 50K diversity libraries were subsets of 142K and 810K parent libraries, enabling screening of a representative subset of >1×10^6 compounds. AR-TIF2 PPI inhibitor and disruptor actives were confirmed in the HCS assay and counter screens designed to identify and exclude nuisance/interference or non-selective compounds (Fancher et al., Assay Drug Dev Technol 2018, 16(6):297-319). […] An AR-GFP subcellular localization assay was used to exclude compounds that reduced AR expression and/or restricted its localization to the cytoplasm (Fancher et al., Assay Drug Dev Technol 2018, 16(6):297-319; Johnston et al., Assay Drug Dev Technol 2016, 14:226-239; Masodi et al., Mol Cancer Ther 2017, 16(10):2120-2129). Hits were structurally classified, clustered, and medicinal chemistry computational filters (PAINS/REOS) were used to exclude nuisance compounds and evaluate drug-like properties (Baell, J Med Chem 2010, 53(7):2719-2740; Baell, ACS Chem. Biol. 2018, 13:36-44; Johnston, Curr Opin Chem Biol 2011, 15:174-182; Walters, Adv Drug Deliv Rev 2002, 54:255-271). […]

SMILES: Cc1nc(N)cc(N2CCOc3c(O)cc(-c4ccccc4C)cc3C2)n1 [Compound S1-2]
- Fold reduction in relative potency in both AR-TIF2 PPIB assay formats: ~2 fold

SMILES: Cc1ccccc1-c1cc(O)c2c(c1)CN(c1cc(N)ncn1)CCO2 [Compound S1-4]
- IC50: > 100 µM

SMILES: COc1cc(-c2ccc(C)s2)cc2c1OCCN(c1nc(C(N)=O)cs1)C2 [Compound S1-5]
- Fold reduction in relative potency in both AR-TIF2 PPIB assay formats: 4 fold

SMILES: Cc1nsc(NC(=O)N2CCC(Cn3ccnc3)CC2)n1 [Compound S2-7]
- IC50: > 100 µM

SMILES: Cc1c(-c2ccc(F)cc2)[nH]c2ccc(CNC(=O)c3ccc(CO)o3)cc12 [Compound S3-15]
- Fold reduction in relative potency in both AR-TIF2 PPIB assay formats: ~2 fold
